{"source": "patent US6936726B2", "about": "“Flavanol and cysteamine conjugates” (Consejo Superior de Investigaciones Cientificas, priority 2000, dated 2005)", "experiment": "DPPH (1,1-diphenyl-2-picrylhydracil) antioxidant/antiradical power assay", "conditions": "initial DPPH• around 60 μM; absorbance at 517 nm; calculated from the curves of FIG. 3", "experimental": "FIG. 3. Antioxidant efficacy of phenolic compounds in the DPPH assay. The absorbance (A) at 517 nm is a measure of the amount of free radical remaining in solution. (1−A/A0)×100 represents the percentage of DPPH that has reacted with the antioxidant. The amount of antioxidant expressed as micromoles per micromole of initial DPPH• to correct the possible day to day variation in the amount of initial DPPH• The initial concentration of DPPH• is calculated from the absorbance (A) and a calibration line. Each point represents the mean of three determinations.\nThe new molecules are potent antioxidants with an excellent capacity to capture free radicals. The conjugates are more efficient than Trolox (water-soluble analogue of Vitamin E) in the DPPH assay (1,1-diphenyl-2-picrylhydracil) [Brand-Williams, W., Cuvelier, M. E., Berset, C., Lebensm.-Wiss. u.-Technol., 28, 25-30 (1995)]. The conjugates are also more efficient than the corresponding non-derived species.\nThe new pure products are strong antioxidants/capturers of free radicals. FIG. 3 presents the results of the DPPH test (1,1-diphenyl-2-pycrylhydracil). The values of EC50 (effective concentration 50) are calculated from the curves. EC50 is the amount of antioxidant required to reduce the initial concentration to half (around 60 μM) of DPPH•. This amount is expressed as micromoles antioxidant/micromoles initial DPPH•. The EC50 values for compounds relevant to the present invention are: Trolox (water-soluble analogue of Vitamin E), 0.26; (−)-epicatechine, 0.19, 4ξ-(2-aminoethylthio)epicatechine I, 0.11; 4ξ-(2-aminoethylthio)epicatechinegalate III, 0.11."}
{"compound": "NCCSC1c2c(O)cc(O)cc2O[C@H](c2ccc(O)c(O)c2)[C@H]1OC(=O)c1cc(O)c(O)c(O)c1", "note": "(stereo partly shown) [III, 4ξ-(2-aminoethylthio)epicatechinegalate]", "values": [{"measurement": "EC50 (amount of antioxidant required to reduce the initial concentration of DPPH• to half)", "result": "0.11 micromoles antioxidant/micromoles initial DPPH•"}]}
{"compound": "Cc1c(C)c2c(c(C)c1O)CCC(C)(C(=O)O)O2", "note": "(stereo not shown) [Trolox]", "values": [{"measurement": "EC50 (amount of antioxidant required to reduce the initial concentration of DPPH• to half)", "result": "0.26 micromoles antioxidant/micromoles initial DPPH•"}]}
{"compound": "NCCSC1c2c(O)cc(O)cc2O[C@H](c2ccc(O)c(O)c2)[C@H]1O", "note": "(stereo partly shown) [I, 4ξ-(2-aminoethylthio)epicatechine]", "values": [{"measurement": "EC50 (amount of antioxidant required to reduce the initial concentration of DPPH• to half)", "result": "0.11 micromoles antioxidant/micromoles initial DPPH•"}]}
{"compound": "(−)-epicatechine", "values": [{"measurement": "EC50 (amount of antioxidant required to reduce the initial concentration of DPPH• to half)", "result": "0.19 micromoles antioxidant/micromoles initial DPPH•"}]}
